Assay results taken from patent US12310967B2, “Compositions and methods of treatment for neurological disorders comprising motor neuron diseases” (Gliapharm SA, priority 2017, dated 2025).

Tests used:
[1] = system: primary mouse astrocytes; experiment: Extracellular lactate quantification, Example 2; format: cell-based; conditions: Astrocyte, 3 nM to 30 μM, 1.5 h, read-out: EC50 release of lactate
Procedure: Primary cultures of cerebrocortical astrocytes were obtained from 1 to 2-day-old OF1 mouse pups (Charles River). Briefly, cortices were isolated and minced in small pieces under a dissecting microscope. The cells were incubated for 30 min at 37° C. in a solution containing 20 U/ml papain, 1 mM L-cysteine and 10 kU/ml DNase I. After dissociation, papain activity was stopped by the addition of fetal calf serum (FCS). Single-cell suspension was then obtained by mechanical dissociation, which consisted in cells trituration in a DMEM D7777 medium supplemented with 44 mm NaHCO3, 10 ml/L antibiotic/antimycotic solution and 10% FCS. […]
Secretion of L-lactate was measured in the extracellular medium of 96-well plated astrocytes after 90 min stimulation (at 37° C., in 5% CO2/95% air conditions) with Vehicle (DMSO), the compounds of the invention (100 nM to 100 μM) or positive control. […] To quantify lactate concentrations in the extracellular medium, 200 μl of a 0.2M Glycine-semicarbazide buffer (pH 10) containing 3 mM NAD and 14 U/ml LDH was added to each well of a 96-well plate containing 30 μl aliquots of extracellular medium. […] Fluorescence intensity (340 nm excitation/450 nm emission), which represents the amount of NADH produced, was measured, and lactate concentration values were determined relative to a standard curve of L-lactate concentrations. […]

[2] = In vivo pharmacokinetics (microdialysis of prefrontal cortex and plasma); parameters: species or system mouse; conditions: gavage 100 mg/kg; therapeutic range 100 nM to 1 uM
Procedure: Mice were anesthetized using isoflurane (2% and 800 mL/min 02). Before surgery, Finadyne (1 mg/kg, s.c.) was administered for analgesia during surgery and the post-surgical recovery period. A mixture of bupivacaine and epinephrine was used for local anesthesia of the incision site of the periost of the skull.
The animals were placed in a stereotaxic frame (Kopf instruments, USA). MetaQuant microdialysis probes with a 3 mm exposed polyacrylonitrile membrane (MQ-PAN 3/3, Brainlink, the Netherlands) were implanted into the prefrontal cortex (coordinates for the tip of the probe: AP=+2.0 mm (to bregma), lateral=−0.7 mm (to midline), ventral=−3.3 mm (to dura), with the incisor bar set at 0.0 mm and an angle of 8°). All coordinates were based on “The mouse brain in stereotaxic coordinates” by Paxinos and Franklin (2004). The probes were attached to the skull with a stainless steel screw and dental cement (Fuji Plus Capsules, Henry Schein, the Netherlands).
In the same surgical procedure, a catheter was placed into the jugular vein to accommodate blood sampling. An indwelling cannula was inserted into the right jugular vein, and exteriorized through an incision on top of the skull. […]
PK was measured for GP-04, GP-05, GP-07, GP-R1 and GP-P1 in the prefrontal cortex and plasma of wild type C56Bl/6 mice by CRO Brainsonline.

Row | Compound | EC50 [1] [nM] | levels in the prefrontal cortex [2]
1 | Cc1ccccc1NC(=O)C1CCCN(c2ncnc3oc(C)c(C)c23)C1 (stereo not drawn) [F228-0422] | 590 | –
2 | CC(=O)N1CCc2sc(S(=O)(=O)N3CCN(c4ccccc4C)CC3)cc2C1 [P025-0159] | – | need chemical improvement
3 | COc1cc(C)c(Cl)cc1S(=O)(=O)NCc1ccncc1 [T5580243] | – | at therapeutic range
